This passage reports IC50 and Ki results from paper PMC5474678 (Journal of medicinal chemistry, 2015).

Structures are written as SMILES.

Test [1] deals with MV4;11 cells. Briefly: Cell viability assay. It counts as cell-based. Conditions: Homo sapiens, MV4-11, 96 h, read-out: IC50 cell growth inhibition MV4.
For test [2], the system named is MOLM-13 cells. Nature of the test: Cell viability assay. Type of test: cell-based. Conditions: Homo sapiens, MOLM-13, 96 h, read-out: IC50 cell growth inhibition MOLM-13.
In test [3] the test system is K562 cells. Briefly: Cell viability assay. Type of test: cell-based. Conditions: Homo sapiens, K562, 96 h, read-out: IC50 cell growth inhibition K562.
Test [4] deals with BRD4 BD1 (Homo sapiens, UniProt O60885). Nature of the test: Competitive fluorescence polarization.
The target of test [5] is BRD4 BD2 (Homo sapiens, UniProt O60885). Briefly: Competitive fluorescence polarization.
The target in test [6] is BRD2 BD1 (Homo sapiens, UniProt P25440). Nature of the test: Competitive fluorescence polarization.
BRD2 BD1, sequence (P25440 72-205): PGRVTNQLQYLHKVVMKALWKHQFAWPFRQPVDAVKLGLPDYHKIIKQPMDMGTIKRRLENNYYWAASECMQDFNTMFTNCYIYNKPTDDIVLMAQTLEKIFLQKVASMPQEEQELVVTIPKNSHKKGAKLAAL
The target of test [7] is BRD3 BD1 (Homo sapiens, UniProt Q15059). Briefly: Competitive fluorescence polarization.
BRD3 BD1, sequence (Q15059 24-144): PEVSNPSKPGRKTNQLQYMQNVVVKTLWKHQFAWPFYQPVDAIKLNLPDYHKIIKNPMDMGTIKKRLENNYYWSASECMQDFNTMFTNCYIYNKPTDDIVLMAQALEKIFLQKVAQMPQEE
In test [8] the target is BRD3 BD2 (Homo sapiens, UniProt Q15059). Briefly: Competitive fluorescence polarization.
BRD3 BD2, sequence (Q15059 306-417): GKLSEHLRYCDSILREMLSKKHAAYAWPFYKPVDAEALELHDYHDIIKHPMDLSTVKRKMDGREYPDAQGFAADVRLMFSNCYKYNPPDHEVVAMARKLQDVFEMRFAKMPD

In the case of `COc1cc2c(cc1-c1c(C)noc1C)[nH]c1ccnc(-c3c(-c4ccccc4)n[nH]c3C)c12` [Compound 19, 4-(8-Methoxy-1-(5-methyl-3-phenyl-1H-pyrazol-4-yl)-5H-pyrido[4,3-b]indol-7-yl)-3,5-dimethyl-isoxazole], the half-maximal inhibitory concentration (IC50) in test [1] was 0.034 ± 0.015 µM; in test [2], 0.144 ± 0.031 µM; in test [3], greater than 2 µM; in test [4], 0.0806 ± 0.001 µM; in test [5] it was 0.129 ± 0.045 µM. Further, the Ki is 0.0269 ± 0.001 µM in test [4]; 0.038 ± 0.0022 µM in test [5]; 0.0122 ± 0.0017 µM in test [6]; 0.0104 ± 0.001 µM in test [7]; 0.0094 ± 0.001 µM in test [8].
